Assay results taken from US20120202856A1, “SUBSTITUTED BENZIMDAZOLE DERIVATIVES USEFUL AS TRPM8 RECEPTOR MODULATORS” (priority 2011, published 2012).
Several values for one entry are separate records, joined by “and”; a condition that tells them apart may be missing. Identical values can stand only once. Counter-ions that a name gives are not always drawn. Like-named read-outs stand apart in the source and are kept apart here.

Assays:
[1] = target: T1, canine TRPM8 (Canis lupus familiaris, UniProt Q1A7N1); experiment: In Vitro Canine TRPM8 Functional Assay (intracellular Ca2+ fluorescence, icilin activation, HEK293 cells); assay type: cell-based; conditions: for inhibition at 0.2 µM / % Inh (%) @0.2 μM, in vitro TRP M8 Activity: individually measured values; for IC50: HEK293 cells expressing canine TRPM8, icilin activation, individually measured values (batches/salt forms), read-out: IC50 (nM), in vitro TRP M8 Activity; for % Inh (%) @0.2 μM, in vitro TRP M8 Activity: 0.2 μM test compound
T1 construct: expressed in transfected cells
T1 sequence (Q1A7N1 1-1104): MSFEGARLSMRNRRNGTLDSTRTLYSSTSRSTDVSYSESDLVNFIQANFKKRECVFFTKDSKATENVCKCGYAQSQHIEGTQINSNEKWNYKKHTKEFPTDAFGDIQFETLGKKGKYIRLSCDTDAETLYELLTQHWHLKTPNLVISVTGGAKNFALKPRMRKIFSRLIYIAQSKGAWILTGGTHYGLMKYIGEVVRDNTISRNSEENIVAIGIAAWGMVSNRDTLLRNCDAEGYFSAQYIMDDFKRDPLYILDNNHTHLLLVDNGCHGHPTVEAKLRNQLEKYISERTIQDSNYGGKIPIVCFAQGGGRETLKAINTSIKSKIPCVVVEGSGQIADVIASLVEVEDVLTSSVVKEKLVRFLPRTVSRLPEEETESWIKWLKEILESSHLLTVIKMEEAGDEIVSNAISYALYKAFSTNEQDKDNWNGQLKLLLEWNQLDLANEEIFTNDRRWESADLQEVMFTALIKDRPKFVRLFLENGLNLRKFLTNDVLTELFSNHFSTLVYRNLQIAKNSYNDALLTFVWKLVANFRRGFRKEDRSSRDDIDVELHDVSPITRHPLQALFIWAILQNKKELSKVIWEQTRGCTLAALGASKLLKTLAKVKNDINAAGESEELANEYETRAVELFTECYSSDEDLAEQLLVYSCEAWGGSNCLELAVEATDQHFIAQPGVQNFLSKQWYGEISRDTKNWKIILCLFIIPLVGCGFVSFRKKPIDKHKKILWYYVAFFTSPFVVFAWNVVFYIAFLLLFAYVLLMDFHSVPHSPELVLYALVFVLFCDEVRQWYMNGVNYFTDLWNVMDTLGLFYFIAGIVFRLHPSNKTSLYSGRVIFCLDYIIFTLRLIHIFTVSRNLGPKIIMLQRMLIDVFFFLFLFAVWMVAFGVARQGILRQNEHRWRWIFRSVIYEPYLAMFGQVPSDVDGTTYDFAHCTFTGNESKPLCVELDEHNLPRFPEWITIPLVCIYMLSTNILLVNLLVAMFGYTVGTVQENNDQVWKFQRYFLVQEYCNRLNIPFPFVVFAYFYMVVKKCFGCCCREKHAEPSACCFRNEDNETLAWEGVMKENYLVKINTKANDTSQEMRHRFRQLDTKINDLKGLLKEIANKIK
Procedure, shortened: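 HEK293 cells expressing canine TRPM8 loaded with Calcium 3 dye, then stimulated with icilin; intracellular Ca2+ rise read on FLIPR or FDSS. Peak fluorescence minus basal normalized to percent maximal response; IC50 from sigmoidal nonlinear regression of quadruplicate wells.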

[2] = test system: icilin-induced “wet-dog” shakes (WDS); experiment: Inhibition of Icilin-Induced “Wet-Dog” Shakes in Rats; assay type: in vivo, Sprague Dawley rats; conditions: po; for inhibition in vivo at 3 mg/kg / inhibition in vivo at 10 mg/kg: read-out: Icilin % Inhibition @1.5 hrs
Method: The test compound was administered in 10% hydroxypropyl-β-cyclodextrin (HP-13-CD), p.o., 60 min before icilin.
% Inhibition=[1−(test compound WDS count/vehicle WDS count)]×100.

[3] = HEK293, read-out: % Inh (%) @0.2 μM, in vitro TRP M8 Activity, 0.2 μM test compound
[4] = HEK293, 0.2 μM test compound, read-out: % Inh (%) @0.2 μM, in vitro TRP M8 Activity
[5] = rat, p.o., dose 3 mg/kg, 1.5 hrs
[6] = rat, p.o., dose 10 mg/kg, 1.5 hrs

SMILES	IC50 [1]	inhibition at 0.2 µM [1, 4]	inhibition in vivo at 3 mg/kg [2, 5]	also measured
Cn1nc(C(C)(C)C)c(Cl)c1-c1nc2cc(-c3c(F)cccc3C(F)(F)F)cc(C(F)(F)F)c2[nH]1 [Compound 125, 2-(5-tert-Butyl-4-chloro-2-methyl-2H-pyrazol-3-yl)-5-(2-fluoro-6-trifluoromethyl-phenyl)-7-trifluoromethyl-1H-benzimidazole sodium salt]	3.2 nM and 1.7 nM			inhibition at 0.2 µM [1, 3]: 100%; inhibition in vivo at 3 mg/kg ([2]; Rattus norvegicus, 1.5 h): 24.6%
Cc1c(C(C)(C)C)nn(C)c1-c1nc2cc(-c3ccccc3F)cc(Cl)c2[nH]1 [Compound 133, 2-(5-tert-Butyl-2,4-dimethyl-2H-pyrazol-3-yl)-7-chloro-5-(2-fluoro-phenyl)-1H-benzimidazole hydrochloride]	12.6 nM and 10.2 nM	99%	4.6%	
Cn1nc(C(C)(C)C)c(Cl)c1-c1nc2cc(-c3ccccc3Cl)cc(Cl)c2[nH]1.[Na] [Compound 115, 2-(5-tert-Butyl-4-chloro-2-methyl-2H-pyrazol-3-yl)-7-chloro-5-(2-chloro-phenyl)-1H-benzimidazole sodium salt]	2.2 nM and 5.6 nM and 4.9 nM	100%	45%	% Inh (%) @0.2 μM, in vitro TRP M8 Activity [1]: 100, 100%
Cc1cc(-c2ccccc2C(F)(F)F)cc2nc(-c3cc(C(C)(C)C)nn3C)[nH]c12 [Compound 79, 2-(5-tert-Butyl-2-methyl-2H-pyrazol-3-yl)-7-methyl-5-(2-trifluoromethylphenyl)-1H-benzimidazole hydrochloride]	5 nM and 14.4 nM			inhibition in vivo at 5.6 mg/kg ([2]; rat, 1.5 hrs): 20.1%
Cl.Cn1nc(C(C)(C)C)c(Cl)c1-c1nc2cc(-c3ccccc3C(F)(F)F)cc(Cl)c2[nH]1 [Compound 116, 2-(5-tert-Butyl-4-chloro-2-methyl-2H-pyrazol-3-yl)-7-chloro-5-(2-trifluoromethyl-phenyl)-1H-benzimidazole hydrochloride]	2.6 nM and 5.8 nM and 5.5 nM	99%	47.7%	% Inh (%) @0.2 μM, in vitro TRP M8 Activity ([1]; hydrochloride, 0.2 µM): 100%
Cn1nc(C(C)(C)C)c(Cl)c1-c1nc2cc(-c3ccccc3C(F)(F)F)ccc2[nH]1 [Compound 50, 2-(5-tert-Butyl-4-chloro-2-methyl-2H-pyrazol-3-yl)-5-(2-trifluoromethylphenyl)-1H-benzimidazole sodium salt]	14 nM and 8.2 nM and 2.2 nM			inhibition in vivo at 10 mg/kg [2, 6]: 47.4%
Cn1nc(C(C)(C)C)c(Cl)c1-c1nc2cc(-c3c(F)cccc3OC(F)(F)F)cc(Cl)c2[nH]1 [Compound 130, 2-(5-tert-Butyl-4-chloro-2-methyl-2H-pyrazol-3-yl)-7-chloro-5-(2-fluoro-6-trifluoromethoxy-phenyl)-1H-benzimidazole hydrochloride]	10.7 nM and 5.3 nM	100%	22.7%	
CC(C)c1cc(-c2nc3cc(-c4ccccc4C(F)(F)F)ccc3[nH]2)on1 [Compound 3, 2-(3-Isopropylisoxazol-5-yl)-5-(2-trifluoromethylphenyl)-1H-benzimidazole sodium salt]	22 nM and 24 nM (2×) and 29 nM			inhibition in vivo at 30 mg/kg ([2]; rat, dose 30 mg/kg, 1.5 hrs): 48.3%
Cc1c(C(C)(C)C)nn(C)c1-c1nc2cc(-c3ccccc3C(F)(F)F)cc(C(F)(F)F)c2[nH]1 [Compound 120, 2-(5-tert-Butyl-2,4-dimethyl-2H-pyrazol-3-yl)-7-trifluoromethyl-5-(2-trifluoromethyl-phenyl)-1H-benzimidazole hydrochloride]	2.1 nM		44.8%	
Cn1nc(C(C)(C)C)c(Cl)c1-c1nc2cc(-c3c(F)cccc3C(F)(F)F)ccc2[nH]1 [Compound 86, 2-(5-tert-Butyl-4-chloro-2-methyl-2H-pyrazol-3-yl)-5-(2-fluoro-6-trifluoromethyl-phenyl)-1H-benzimidazole hydrochloride]	3.1 nM and 7.7 nM			inhibition in vivo at 10 mg/kg [2, 6]: 98.7%
Cn1nc(C(C)(C)C)c(Cl)c1-c1nc2cc(-c3c(F)cccc3C(F)(F)F)cc(Cl)c2[nH]1.[Na] [Compound 113, 2-(5-tert-Butyl-4-chloro-2-methyl-2H-pyrazol-3-yl)-7-chloro-5-(2-fluoro-6-trifluoromethyl-phenyl)-1H-benzimidazole sodium salt]	2.4 nM and 3.5 nM and 4.4 nM			% Inh (%) @0.2 μM, in vitro TRP M8 Activity ([1]; sodium salt, 0.2 µM): 100%; inhibition at 0.2 µM [1, 3]: 99%; inhibition in vivo at 3 mg/kg ([2]; Rattus norvegicus, 1.5 h): 2.8%
CC(C)(C)c1cc(-c2nc3cc(-c4ccccc4C(F)(F)F)ccc3[nH]2)on1 [Compound 9, 2-(3-tert-Butylisoxazol-5-yl)-5-(2-trifluoromethylphenyl)-1H-benzimidazole sodium salt]	17.4 nM and 12 nM			inhibition in vivo at 10 mg/kg [2, 6]: 66.4%
Cn1nc(C(C)(C)C)c(Cl)c1-c1nc2cc(-c3ccccc3Cl)ccc2[nH]1 [Compound 89, 2-(5-tert-Butyl-4-chloro-2-methyl-2H-pyrazol-3-yl)-5-(2-chloro-phenyl)-1H-benzimidazole hydrochloride]	3.6 nM and 5.2 nM and 2.4 nM			inhibition in vivo at 10 mg/kg [2, 6]: 91.5%
Cn1nc(C(C)(C)C)c(C#N)c1-c1nc2cc(-c3ccccc3OC(F)(F)F)cc(Cl)c2[nH]1 [Compound 170, 3-tert-Butyl-5-[7-chloro-5-(2-trifluoromethoxy-phenyl)-1H-benzimidazol-2-yl]-1-methyl-1H-pyrazole-4-carbonitrile sodium salt]	12.4 nM	100%	4.3%	
Cl.Cn1nc(C(C)(C)C)c(Cl)c1-c1nc2cc(-c3c(F)cccc3F)cc(Cl)c2[nH]1 [Compound 112, 2-(5-tert-Butyl-4-chloro-2-methyl-2H-pyrazol-3-yl)-7-chloro-5-(2,6-difluoro-phenyl)-1H-benzimidazole hydrochloride]	5.6 nM and 3.5 nM and 5.9 nM	99%	21.2%	% Inh (%) @0.2 μM, in vitro TRP M8 Activity [1]: 99, 99%
Cc1c(C(C)(C)C)nn(C)c1-c1nc2cc(-c3c(F)cccc3F)cc(Cl)c2[nH]1 [Compound 136, 2-(5-tert-Butyl-2,4-dimethyl-2H-pyrazol-3-yl)-7-chloro-5-(2,6-difluoro-phenyl)-1H-benzimidazole hydrochloride]	8.2 nM and 9 nM	100%	61.6%	
Cc1c(C(C)(C)C)nn(C)c1-c1nc2cc(-c3ccccc3C(F)(F)F)ccc2[nH]1 [Compound 76, 2-(5-tert-Butyl-2,4-dimethyl-2H-pyrazol-3-yl)-5-(2-trifluoromethylphenyl)-1H-benzimidazole sodium salt]	6 nM			inhibition in vivo at 10 mg/kg ([2]; Rattus norvegicus, 1.5 h): 98.6%
Cn1nc(C(C)(C)C)c(C#N)c1-c1nc2cc(-c3ccccc3C(F)(F)F)cc(Cl)c2[nH]1 [Compound 169, 3-tert-Butyl-5-[7-chloro-5-(2-trifluoromethyl-phenyl)-1H-benzimidazol-2-yl]-1-methyl-1H-pyrazole-4-carbonitrile sodium salt]	8 nM	100%	34%	
Cn1nc(C(C)(C)C)cc1-c1nc2cc(-c3c(F)cccc3C(F)(F)F)ccc2[nH]1 [Compound 61, 2-(5-tert-Butyl-2-methyl-2H-pyrazol-3-yl)-5-(2-fluoro-6-trifluoromethylphenyl)-1H-benzimidazole sodium salt]	7.8 nM and 10 nM			inhibition in vivo at 10 mg/kg ([2]; Rattus norvegicus, 1.5 h): 38.8%
Cl.Cn1nc(C(C)(C)C)c(Cl)c1-c1nc2cc(-c3ccccc3OC(F)(F)F)cc(Cl)c2[nH]1 [Compound 117, 2-(5-tert-Butyl-4-chloro-2-methyl-2H-pyrazol-3-yl)-7-chloro-5-(2-trifluoromethoxy-phenyl)-1H-benzimidazole hydrochloride]	7 nM and 11.3 nM and 8.4 nM	100%	7.7%	% Inh (%) @0.2 μM, in vitro TRP M8 Activity [1]: 100, 100%
Cc1c(C(C)(C)C)nn(C)c1-c1nc2cc(-c3c(F)cccc3C(F)(F)F)ccc2[nH]1 [Compound 78, 2-(5-tert-Butyl-2,4-dimethyl-2H-pyrazol-3-yl)-5-(2-fluoro-6-trifluoromethyl-phenyl)-1H-benzimidazole sodium salt]	1 nM			inhibition in vivo at 10 mg/kg ([2]; Rattus norvegicus, 1.5 h): 99.3%
CCn1nc(C(C)(C)C)cc1-c1nc2cc(-c3ccccc3C(F)(F)F)ccc2[nH]1 [Compound 44, 2-(5-tert-Butyl-2-ethyl-2H-pyrazol-3-yl)-5-(2-trifluoromethylphenyl)-1H-benzimidazole sodium salt]	15.8 nM			inhibition in vivo at 10 mg/kg ([2]; Rattus norvegicus, 1.5 h): 30%
Cn1nc(C(C)(C)C)cc1-c1nc2cc(-c3c(F)cccc3F)ccc2[nH]1 [Compound 58, 2-(5-tert-Butyl-2-methyl-2H-pyrazol-3-yl)-5-(2,6-difluoro-phenyl)-1H-benzimidazole trifluoroacetic acid salt]	14 nM and 17.3 nM			inhibition in vivo at 5.6 mg/kg ([2]; rat, 1.5 hrs): 11.2%
